*1 amine or outer side, *2 acyl side, *3 side chain or, on linkers, in order; H or OH if unused. Where a SMILES comes first, the peptide text is derived from it. Side-chain parts run from the residue outwards. [ ]: non-standard residue; d: D form. The star is where a group is joined. 2Naphthoyl(6-OH) = O=C(c1ccc2cc(O)ccc2c1)*; Desaminotyrosyl = O=C(CCc1ccc(O)cc1)*; NH(1-naphthyl) = c1ccc2c(N*)cccc2c1; NMeF = CN[C@@H](Cc1ccccc1)C(=O)O; X11 = O=C(C=Cc1ccc(Cl)c(Cl)c1)*; NMeD = CN[C@@H](CC(=O)O)C(=O)O; NH(2-Me-phenyl) = Cc1ccccc1N*; X18 = O=C(/C=C/c1ccc(Cl)cc1)*; X14 = O=[N+]([O-])c1ccccc1N*; X8 = O=C(C=Cc1ccc(O)c(O)c1)*; X7 = Cc1ccc(/C=C/C(=O)*)cc1; X13 = O=C(C=Cc1ccc(F)cc1)*; X21 = O=C(C=Cc1cccc(O)c1)*; X1 = O=C(C=Cc1ccc(O)cc1)*; Boc = CC(C)(C)OC(=O)*; CO = O=C([*:1])[*:2]; NHPh = c1ccc(N*)cc1; NHtBu = CC(C)(C)N*; X16 = COc1ccccc1N*; X19 = Brc1ccccc1N*

The target of one test is T1, Type-B CCK receptor (Cavia porcellus, UniProt H0VZC5).
T1 construct: Cortical and pancreatic membranes were prepared as described; from tissue; host or cells: guinea pig cerebral cortex membranes
T1 sequence (H0VZC5 1-426): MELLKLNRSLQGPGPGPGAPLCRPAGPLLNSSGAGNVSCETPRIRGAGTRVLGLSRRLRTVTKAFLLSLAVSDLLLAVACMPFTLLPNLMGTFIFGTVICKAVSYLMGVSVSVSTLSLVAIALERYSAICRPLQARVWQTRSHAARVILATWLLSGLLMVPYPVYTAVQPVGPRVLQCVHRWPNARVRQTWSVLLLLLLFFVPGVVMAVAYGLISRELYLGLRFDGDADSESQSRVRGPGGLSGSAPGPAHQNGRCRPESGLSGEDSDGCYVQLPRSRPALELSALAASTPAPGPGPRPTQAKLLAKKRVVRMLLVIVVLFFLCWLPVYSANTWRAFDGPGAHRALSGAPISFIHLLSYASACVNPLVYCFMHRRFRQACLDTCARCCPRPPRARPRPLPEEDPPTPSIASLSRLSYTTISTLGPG
The test is described as follows: Radioligand binding of [125I]BH-CCK-8 in guinea pig cerebral cortical membrane preparations.
Conditions: not given
From the text: (§1) CCK-8 [Asp-Tyr(SO3 H)-Met-Gly-Trp-Met-Asp-PheNH2 ], bestatin and phosphoramidion were purchased from Peptide International (Louisville, Ky.). EGTA (ethylene glycol-bis-(β-aminoethyl) N,N,N',N'-tetraacetic acid), HEPES (4-(2-hydroxyethyl)-1-piperazine-enthanesulfonic acid) and BSA (bovine serum albumin) were purchased from Sigma Chemical Co. (St. Louis, Mo.). [^125 I]-Bolton-Hunteer (BH-CCK-8) (specific activity, 2200 Ci/mmol) was obtained from New England Nuclear (Boston, Mass.). Male guinea pigs, 250 to 325 g, were obtained from Scientific Small Animal Laboratory and Farm (Arlington Heights, Ill.). Collagenase, code CLSPA was purchased from Worthington (Frehold, N.J.).
(§2) Protocol For Radioligand Binding Experiments in Guinea Pig Cerebral Cortical and Pancreatic Membrane Preparations
(§3) Cortical and pancreatic membranes were prepared as described (Lin and Miller; J. Pharmacol. Exp. Ther. 1985, 232:775-780,). In brief, cortex and pancreas were removed and rinsed with ice-cold saline. Visible fat and connective tissues were removed from the pancreas. […] The homogenates were entrifuged for 10 minutes at 1075×g and pellets were discarded. The supernatants were saved and centrifuged at 38,730×g for 20 minutes. The resultant pellets were rehomogenized in 25 mL of 50 mM Tris-HCl buffer with a Teflon-glass homogenizer, 5 up and down strokes. The homogenates were centrifuged again at 38,730×g for 20 minutes. Pellets werre then resuspended in 20 mM HEPES, containing 1 mM EGTA, 118 mM NaCl, 4.7 mM KCl, 5 mM MgCl2, 100 μM bestatin, 3 μM phosphoramidon, pH 7.4 at 22° C. with a Teflon-glass homogenizer, 15 up and down strokes. Resuspension volume for the cortex was 15-18 mL per gram of original wet weight and 60 mL per gram for the pancreas.
(§4) [^125 I]Bolton-Hunter CCK-8 and test compounds were diluted with HEPES-EGTA-salt buffer (see above) containing 0.5% BSA. To 1 mL Skatron polystyrene tubes were added 25 μL of test compounds, 25 μL of [^125 I]BH-CCK-8 and 200 μL of membrane suspension. The final BSA concentration was 0.1%. The cortical tissues were incubated at 30° C. for 150 minutes and pancreatic tissues were incubated at 37° C. for 150 min. Incubations were terminated by filtration using Skatron Cell Harvester and SS32 microfiber filter mats. […] IC50 s were determined from the Hill analysis.
As usually defined, the IC50 is the concentration needed to halve the response being measured. Consider `CC(C)(C)OC(=O)N[C@@H](Cc1c[nH]c2ccccc12)C(=O)N[C@@H](CCCCNC(=O)Nc1cccc2ccccc12)C(=O)N[C@@H](CC(=O)O)C(=O)N[C@@H](Cc1ccccc1)C(N)=O` [Example 28, t-BOC-Trp-Lys(ε-N-(α-naphthyl)aminocarbonyl)-Asp-PheNH2] (Boc-WK([CO-NH(1-naphthyl)])DF-NH2), for which the IC50 came to 10000 nM.

The same test, now with this note: guinea pig cortical membranes, 30° C., 150 minutes; read-out: IC50 (nM) 125I-BH-CCK-8 Type-B receptor.
As to `CN(C(=O)[C@H](CC(=O)O)NC(=O)[C@H](CCCCNC(=O)c1ccc2cc(O)ccc2c1)NC(=O)[C@H](Cc1c[nH]c2ccccc12)NC(=O)OC(C)(C)C)[C@@H](Cc1ccccc1)C(N)=O` [Example 19, t-BOC-Trp-Lys(ε-N-(6-hydroxy-β-naphthoyl))-Asp-(NMe)PheNH2] (Boc-WK(2Naphthoyl(6-OH))D[NMeF]-NH2), the IC50 was 730 nM.
On the same count and under the same terms, then `CC(C)(C)OC(=O)N[C@@H](Cc1c[nH]c2ccccc12)C(=O)N[C@@H](CCCCNC(=O)Nc1ccccc1)C(=O)N[C@@H](CC(=O)O)C(=O)N[C@@H](Cc1ccccc1)C(N)=O` [Example 29, t-BOC-Trp-Lys(ε-N-(phenylaminocarbonyl))-Asp-PheNH2] (Boc-WK([CO-NHPh])DF-NH2), with 1100 nM.
For the compound `CC(C)(C)NC(=O)NCCCC[C@H](NC(=O)[C@H](Cc1c[nH]c2ccccc12)NC(=O)OC(C)(C)C)C(=O)N[C@@H](CC(=O)O)C(=O)N[C@@H](Cc1ccccc1)C(N)=O` [Example 32, t-BOC-Trp-Lys(ε-N-(t-butylaminocarbonyl))-Asp-PheNH2] (Boc-WK([CO-NHtBu])DF-NH2), the IC50 was found to be 5600 nM.
The same measure, in the same setting: the same measure for `CC(C)(C)OC(=O)N[C@@H](Cc1c[nH]c2ccccc12)C(=O)N[C@@H](CCCC/N=C(\S)Nc1ccccc1Cl)C(=O)N[C@@H](CC(=O)O)C(=O)N[C@@H](Cc1ccccc1)C(N)=O` [Example 37, t-BOC-Trp-Lys(ε-N-(2-chlorophenyl)aminothiocarbonyl)-Asp-PheNH2]: 2900 nM.

In another test the target is T2, Type-A CCK receptor (Cavia porcellus, UniProt Q63931).
T2 construct: Cortical and pancreatic membranes were prepared as described; from tissue; host or cells: guinea pig pancreas membranes
T2 sequence (Q63931 1-430): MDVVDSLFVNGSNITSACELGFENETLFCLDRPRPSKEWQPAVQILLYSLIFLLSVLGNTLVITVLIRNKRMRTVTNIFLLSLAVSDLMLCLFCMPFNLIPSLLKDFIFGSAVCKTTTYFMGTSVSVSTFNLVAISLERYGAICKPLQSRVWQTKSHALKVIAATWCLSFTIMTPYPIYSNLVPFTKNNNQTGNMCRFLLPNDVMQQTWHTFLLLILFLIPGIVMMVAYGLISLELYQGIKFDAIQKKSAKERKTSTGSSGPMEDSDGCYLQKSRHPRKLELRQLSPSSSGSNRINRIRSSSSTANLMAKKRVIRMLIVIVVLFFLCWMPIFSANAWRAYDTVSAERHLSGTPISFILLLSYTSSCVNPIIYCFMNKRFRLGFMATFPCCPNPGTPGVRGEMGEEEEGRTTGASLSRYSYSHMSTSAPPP
The experiment in a line: Radioligand binding of [125I]BH-CCK-8 in guinea pig pancreatic membrane preparations.
Conditions: not given
From the text: as §1, §2, §3, §4
Compound `CC(C)(C)OC(=O)N[C@@H](Cc1c[nH]c2ccccc12)C(=O)N[C@@H](CCCCNC(=O)CCc1ccc(O)cc1)C(=O)N[C@@H](CC(=O)O)C(=O)N[C@@H](Cc1ccccc1)C(N)=O` [Example 1, t-BOC-Trp-Lys(ε-N-(3-(4-hydroxyphenyl)propionyl))-Asp-PheNH2] (Boc-WK(Desaminotyrosyl)DF-NH2) had an IC50 of 124 nM.
The same measure, in the same setting: then `CC(C)(C)OC(=O)N[C@@H](Cc1c[nH]c2ccccc12)C(=O)N[C@@H](CCCCNC(=O)C=Cc1cccc(O)c1)C(=O)N[C@@H](CC(=O)O)C(=O)N[C@@H](Cc1ccccc1)C(N)=O` [Example 5, t-BOC-Trp-Lys(ε-N-(3-hydroxycinnamoyl))-Asp-PheNH2] (Boc-WK(X21)DF-NH2), with 37 nM; and `Cc1ccc(/C=C/C(=O)NCCCC[C@H](NC(=O)[C@H](Cc2c[nH]c3ccccc23)NC(=O)OC(C)(C)C)C(=O)N[C@@H](CC(=O)O)C(=O)N[C@@H](Cc2ccccc2)C(N)=O)cc1` [Example 6, t-BOC-Trp-Lys(ε-N-(4-methylcinnamoyl))-Asp-PheNH2] (Boc-WK(X7)DF-NH2), with 71 nM.
On to `CC(C)(C)OC(=O)N[C@@H](Cc1c[nH]c2ccccc12)C(=O)N[C@@H](CCCCNC(=O)C=Cc1ccc(F)cc1)C(=O)N[C@@H](CC(=O)O)C(=O)N[C@@H](Cc1ccccc1)C(N)=O` [Example 7, t-BOC-Trp-Lys(ε-N-(4-fluorocinnamoyl))-Asp-PheNH2] (Boc-WK(X13)DF-NH2), for which the IC50 came to 65 nM.
Still for that read-out and setting: the same measure for `CC(C)(C)OC(=O)N[C@@H](Cc1c[nH]c2ccccc12)C(=O)N[C@@H](CCCCNC(=O)C=Cc1ccc(O)c(O)c1)C(=O)N[C@@H](CC(=O)O)C(=O)N[C@@H](Cc1ccccc1)C(N)=O` [Example 14, t-BOC-Trp-Lys(ε-N-(3,4-dihydroxycinnamoyl))-Asp-PheNH2] (Boc-WK(X8)DF-NH2): 33 nM.
On the same count and under the same terms, the same measure for `CC(C)(C)OC(=O)N[C@@H](Cc1c[nH]c2ccccc12)C(=O)N[C@@H](CCCCNC(=O)C=Cc1ccc(Cl)c(Cl)c1)C(=O)N[C@@H](CC(=O)O)C(=O)N[C@@H](Cc1ccccc1)C(N)=O` [Example 15, t-BOC-Trp-Lys(ε-N-(3,4-dichlorocinnamoyl))-Asp-PheNH2] (Boc-WK(X11)DF-NH2): 65 nM; for `CN(C(=O)[C@H](CC(=O)O)NC(=O)[C@H](CCCCNC(=O)/C=C/c1ccc(Cl)cc1)NC(=O)[C@H](Cc1c[nH]c2ccccc12)NC(=O)OC(C)(C)C)[C@@H](Cc1ccccc1)C(N)=O` [Example 18, t-BOC-Trp-Lys(ε-N-(4-chlorocinnamoyl))-Asp-(NMe)PheNH2] (Boc-WK(X18)D[NMeF]-NH2): 22 nM; for `CC(C)(C)OC(=O)N[C@@H](Cc1c[nH]c2ccccc12)C(=O)N[C@@H](CCCCNC(=O)Nc1ccccc1[N+](=O)[O-])C(=O)N[C@@H](CC(=O)O)C(=O)N[C@@H](Cc1ccccc1)C(N)=O` [Example 34, t-BOC-Trp-Lys(ε-N-(2-nitrophenyl)aminocarbonyl)-Asp-PheNH2] (Boc-WK([CO-X14])DF-NH2): 23 nM.
For `CC(C)(C)OC(=O)N[C@@H](Cc1c[nH]c2ccccc12)C(=O)N[C@@H](CCCCNC(=O)Nc1ccccc1Br)C(=O)N[C@@H](CC(=O)O)C(=O)N[C@@H](Cc1ccccc1)C(N)=O` [Example 36, t-BOC-Trp-Lys(ε-N-(2-bromophenyl)aminocarbonyl)-Asp-PheNH2] (Boc-WK([CO-X19])DF-NH2), the IC50 was 7 nM.
The same measure, in the same setting: the same measure for `Cc1ccccc1/N=C(/S)NCCCC[C@H](NC(=O)[C@H](Cc1c[nH]c2ccccc12)NC(=O)OC(C)(C)C)C(=O)N[C@@H](CC(=O)O)C(=O)N[C@@H](Cc1ccccc1)C(N)=O` [Example 38, t-BOC-Trp-Lys(ε-N-(2-methylphenyl)aminothiocarbonyl)-Asp-PheNH2]: 230 nM.
On the same count and under the same terms, then `Cc1ccccc1NC(=O)NCCCC[C@H](NC(=O)[C@H](Cc1c[nH]c2ccccc12)NC(=O)OC(C)(C)C)C(=O)N(C)[C@@H](CC(=O)O)C(=O)N[C@@H](Cc1ccccc1)C(N)=O` [Example 60, t-BOC-Trp-Lys(ε-N-(2-methylphenyl)aminocarbonyl)-(NMe)Asp-PheNH2] (Boc-WK([CO-NH(2-Me-phenyl)])[NMeD]F-NH2), with 4.3 nM.

Still in this test, the particulars now being: guinea pig pancreatic membranes, 37° C., 150 min; read-out: IC50 (nM) 125I-BH-CCK-8 Type-A receptor.
With `CN(C(=O)[C@H](CC(=O)O)NC(=O)[C@H](CCCCNC(=O)C=Cc1ccc(O)cc1)NC(=O)[C@H](Cc1c[nH]c2ccccc12)NC(=O)OC(C)(C)C)[C@@H](Cc1ccccc1)C(N)=O` [Example 17, t-BOC-Trp-Lys(ε-N-(4-hydroxycinnamoyl))-Asp-(NMe)PheNH2] (Boc-WK(X1)D[NMeF]-NH2), the IC50 worked out at 7 nM.
Same read-out and setting: the same measure for `COc1ccccc1NC(=O)NCCCC[C@H](NC(=O)[C@H](Cc1c[nH]c2ccccc12)NC(=O)OC(C)(C)C)C(=O)N[C@@H](CC(=O)O)C(=O)N[C@@H](Cc1ccccc1)C(N)=O` [Example 43, t-BOC-Trp-Lys(ε-N-(2-methoxyphenyl)aminocarbonyl)-Asp-PheNH2] (Boc-WK([CO-X16])DF-NH2): 23 nM.

The values above are taken from patent US5270302A, “Derivatives of tetrapeptides as CCK agonists” (priority 1991, dated 1993).
